Assay results reported in ChEMBL document CHEMBL1201862, “PubChem BioAssay data set” (2004).
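Exposure lasted 48 hours, with cells grown in 96-well plates and compounds tested at five concentrations. GI50 is the concentration that inhibits growth by half.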 Calls of active or inactive are those of the source. No stated cut-off is given here; in the data, active = GI50 up to about 1.1 µM and inactive = higher.

How the values were obtained:
Assay in all cases: inhibition of tumour cell growth, NCI panel, 48 h
[1] = tested on: A549
[2] = tested on: CAKI-1
[3] = tested on: COLO 205
[4] = tested on: HCT-15
[5] = tested on: HOP-62
[6] = tested on: HT-29
[7] = tested on: IGROV-1
[8] = tested on: MDA-MB-231
[9] = tested on: NCI-H226
[10] = tested on: NCI-H522
[11] = tested on: OVCAR-5
[12] = tested on: RPMI-8226
[13] = tested on: RXF 393
[14] = tested on: SK-MEL-5
[15] = tested on: SK-OV-3
[16] = tested on: SNB-19
[17] = tested on: TK-10
[18] = tested on: U-251
[19] = tested on: UACC-257
[20] = tested on: UACC-62

Compound	GI50 [1]	GI50 [2]	GI50 [3]	GI50 [4] [µM]	GI50 [5]	GI50 [6]	GI50 [7]	GI50 [8]	GI50 [9]	GI50 [10]	GI50 [11]	GI50 [12]	GI50 [13]	GI50 [14]	GI50 [15]	GI50 [16]	GI50 [17]	GI50 [18]	GI50 [19]	GI50 [20]
Cc1occc1C(=S)Nc1ccc(Cl)c(C(=O)OC(C)C2CC2)c1 (stereo not given)	35.2 µM (inactive)	18.7 µM (inactive)	20.1 µM (inactive)	18.5	17.8 µM (inactive)	20.6 µM (inactive)	16 µM (inactive)	17.4 µM (inactive)	15.5 µM (inactive)	14.4 µM (inactive)	23.4 µM (inactive)	24.8 µM (inactive)	20.4 µM (inactive)	15.3 µM (inactive)	21.6 µM (inactive)	17.3 µM (inactive)	37.5 µM (inactive)	23.9 µM (inactive)	30.3 µM (inactive)	22.8 µM (inactive)
C=C1C(=O)O[C@@H]2C[C@@H](C)[C@@H]3C=CC(=O)[C@@]3(C)[C@@H](OC(=O)CC(=O)O[C@H]3[C@@H]4C(=C)C(=O)O[C@@H]4C[C@@H](C)[C@@H]4C=CC(=O)[C@]43C)[C@H]12	0.431 µM (active)	0.0238 µM (active)	< 0.0148 µM (active)	0.0309	0.44 µM (active)	0.0342 µM (active)	0.173 µM (active)	0.0552 µM (active)	0.102 µM (active)	< 0.01 µM (active)	0.178 µM (active)	0.0124 µM (active)	< 0.0112 µM (active)	0.0869 µM (active)	0.256 µM (active)	0.548 µM (active)	0.117 µM (active)	0.0356 µM (active)	0.0252 µM (active)	0.0306 µM (active)
O=C(NCCN1CCCC1)c1cn2c(ccc3sc4ccccc4c(=O)c32)n1	7.19 µM (inactive)	11.4 µM (inactive)	11.7 µM (inactive)	10.9	11.7 µM (inactive)	3.18 µM (inactive)	11.7 µM (inactive)	2.16 µM (inactive)	17 µM (inactive)	10.7 µM (inactive)	11.9 µM (inactive)	1.52 µM (inactive)	10.8 µM (inactive)	10.3 µM (inactive)	16.3 µM (inactive)	13.7 µM (inactive)	12.5 µM (inactive)	16.7 µM (inactive)	17.7 µM (inactive)	17.1 µM (inactive)
CN(C)CCCSc1nc2c(c(=N)n1-c1ccccc1)c(=S)n(-c1ccccc1)c(=S)n2-c1ccccc1	1.95 µM (inactive)	1.77 µM (inactive)	1.9 µM (inactive)	1.61	1.8 µM (inactive)	2.17 µM (inactive)	1.83 µM (inactive)	1.61 µM (inactive)	4.74 µM (inactive)	1.69 µM (inactive)	11.3 µM (inactive)	0.39 µM (active)	1.57 µM (inactive)	1.91 µM (inactive)	2.65 µM (inactive)	2.51 µM (inactive)	1.71 µM (inactive)	1.75 µM (inactive)	1.77 µM (inactive)	1.78 µM (inactive)
Cc1ccc(S(=O)(=O)NC2=NS(=O)(=O)c3cc(C)c(Cl)cc3S2)cc1	> 100 µM (inactive)	> 100 µM (inactive)	> 100 µM (inactive)	> 100	> 100 µM (inactive)	> 100 µM (inactive)	> 100 µM (inactive)	> 100 µM (inactive)	> 100 µM (inactive)	42.3 µM (inactive)	> 100 µM (inactive)	> 100 µM (inactive)	76.7 µM (inactive)	> 100 µM (inactive)	> 100 µM (inactive)	75 µM (inactive)	> 100 µM (inactive)	> 100 µM (inactive)	> 100 µM (inactive)	> 100 µM (inactive)
COc1ccc(C[N+](C)(C)N)cc1OC	> 10 µM (inactive)	> 10 µM (inactive)	> 10 µM (inactive)	> 10	> 10 µM (inactive)	> 10 µM (inactive)	> 100 µM (inactive)	> 10 µM (inactive)	> 100 µM (inactive)	> 10 µM (inactive)	> 10 µM (inactive)	> 10 µM (inactive)	> 100 µM (inactive)	> 10 µM (inactive)	> 10 µM (inactive)	> 10 µM (inactive)	> 10 µM (inactive)	> 10 µM (inactive)	> 10 µM (inactive)	> 100 µM (inactive)
O=C(Nc1ccc(Cl)c(Cl)c1)N1N=C2c3ccccc3CCC2C1c1ccc(Cl)cc1 (stereo not given)	> 100 µM (inactive)	> 100 µM (inactive)	> 100 µM (inactive)	> 100	> 100 µM (inactive)	> 100 µM (inactive)	3.01 µM (inactive)	> 100 µM (inactive)	> 100 µM (inactive)	> 100 µM (inactive)	> 100 µM (inactive)	> 100 µM (inactive)	> 100 µM (inactive)	> 100 µM (inactive)	> 100 µM (inactive)	> 100 µM (inactive)	> 100 µM (inactive)	> 100 µM (inactive)	> 100 µM (inactive)	> 100 µM (inactive)
CC1=NN(c2nc(N)nc(CCl)n2)C(C)(C)C1	42.6 µM (inactive)	3.15 µM (inactive)	22.9 µM (inactive)	21	3.67 µM (inactive)	29.9 µM (inactive)	4.41 µM (inactive)	29.3 µM (inactive)	38.1 µM (inactive)	1.39 µM (inactive)	32 µM (inactive)	25.6 µM (inactive)	> 56.8 µM (inactive)	19.8 µM (inactive)	> 56 µM (inactive)	> 61.9 µM (inactive)	> 71.6 µM (inactive)	25.4 µM (inactive)	51.9 µM (inactive)	14.8 µM (inactive)
Cn1nc2c(c1N)Cc1c(nn(C)c1N)-c1ccccc1-2	> 100 µM (inactive)	> 100 µM (inactive)	> 100 µM (inactive)	> 100	> 100 µM (inactive)	> 100 µM (inactive)	> 100 µM (inactive)	> 100 µM (inactive)	> 100 µM (inactive)	> 100 µM (inactive)	> 100 µM (inactive)	> 100 µM (inactive)	> 100 µM (inactive)	> 100 µM (inactive)	> 100 µM (inactive)	> 100 µM (inactive)	> 100 µM (inactive)	> 100 µM (inactive)	> 100 µM (inactive)	> 100 µM (inactive)
CC1CC(OP(=O)(OCc2ccccc2)OCc2ccccc2)[C@@H](OCc2ccccc2)C(OCc2ccccc2)C1OCc1ccccc1 (stereo not given in full)	24.7 µM (inactive)	> 100 µM (inactive)	> 100 µM (inactive)	> 100	> 100 µM (inactive)	67.9 µM (inactive)	64.7 µM (inactive)	> 100 µM (inactive)	> 100 µM (inactive)	81.8 µM (inactive)	> 100 µM (inactive)	> 100 µM (inactive)	0.0555 µM (active)	62.5 µM (inactive)	> 100 µM (inactive)	46.8 µM (inactive)	22.2 µM (inactive)	20.1 µM (inactive)	76.6 µM (inactive)	> 100 µM (inactive)
